Source: US20250024872A1, “SALTY TASTE ENHANCER” (AJINOMOTO CO., INC., priority 2022, published 2025)

Assay: sensory evaluation of saltiness intensity by expert panel, 1.0% sodium chloride solution
Assay type: in vivo
Protocol: Evaluation samples 1 to 10 were prepared by adding a cyclotene diluted solution (using propylene glycol as a solvent) to 1.0% sodium chloride solution to adjust the concentration of cyclotene in the sodium chloride solution as shown in the following Table 1. The amount of propylene glycol added was adjusted to be the same in all evaluation samples.
A panel of four experts conducted a sensory evaluation of the saltiness intensity of evaluation samples 1 to 10. The sensory evaluation was performed by the four experts, who scored each evaluation sample in 0.1 point increments based on the following evaluation scale using 1.0% sodium chloride solution, 1.025% sodium chloride solution and 1.05% sodium chloride solution as reference samples, and calculated the average score of the four experts. The four experts were previously trained to have a common understanding of the following saltiness intensity evaluation scale, such as the amount of saltiness intensity change required to cause a score change of 0.1 point.
• 0.0 points: saltiness intensity equivalent to 1.0% sodium chloride solution • 5.0 points: saltiness intensity equivalent to 1.025% sodium chloride solution • 10.0 points: saltiness intensity equivalent to 1.05% sodium chloride solution

In the case of CC1=C(O)C(=O)CC1 [cyclotene], the “saltiness enhancement (in words)” value is reported as “has a saltiness enhancing action”.
